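Where inhibition never reached the appropriate level, the endpoint shown equals the highest concentration tested. Otherwise, values were interpolated linearly from a five-concentration, 48-hour dose response in 96-well plates. GI50 marks 50% less growth.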 Active and inactive are the calls of the source. No stated cut-off is given here; in the data, active = GI50 up to about 1.1 µM and inactive = higher.
Tests used:
Test in all cases: NCI anticancer screen, dose series, 48 h
[1] = system: ACHN
[2] = system: NCI-H460
[3] = system: A549
[4] = system: HL-60
[5] = system: 786-0
[6] = system: HCT-15
[7] = system: LOX IMVI
[8] = system: OVCAR-8
[9] = system: SNB-19
[10] = system: OVCAR-4
[11] = system: DU-145
[12] = system: TK-10
[13] = system: MDA-N
[14] = system: T47D
[15] = system: NCI-H522
[16] = system: M14
[17] = system: SF-295
[18] = system: RPMI-8226
[19] = system: RXF 393

Structure (SMILES) | GI50 [1] | GI50 [2] | GI50 [3] | GI50 [4] | GI50 [5] | GI50 [6] | GI50 [7] | GI50 [8] | GI50 [9] | GI50 [10] | GI50 [11] | GI50 [12] | GI50 [13] | GI50 [14] | GI50 [15] | GI50 [16] | GI50 [17] | GI50 [18] | GI50 [19]
CCCCCCCCCCCCCCCCP(=O)(O)OP(=O)(O)OCC1OC(n2cnc3c(N)ncnc32)C(O)C1O (centres undefined) | 26.7 µM (inactive) | 24.5 µM (inactive) | 33.5 µM (inactive) | 35.4 µM (inactive) | 22.8 µM (inactive) | 23.8 µM | 27.4 µM (inactive) | 22 µM (inactive) | 20 µM (inactive) | 36.3 µM (inactive) | 46.9 µM (inactive) | 15.6 µM (inactive) | 43.4 µM (inactive) | 82.6 µM (inactive) | 22.1 µM (inactive) | 27.5 µM (inactive) | – | – | –
CC1=C(O)C(=O)C2=C(C1=O)[C@@H]([C@@H](C)C/C=C/C(C)(C)O)CC[C@@H]2C | 31.4 µM (inactive) | 55.5 µM (inactive) | 53.5 µM (inactive) | 33.4 µM (inactive) | > 100 µM (inactive) | 31 µM | 29.6 µM (inactive) | 78.9 µM (inactive) | 83.6 µM (inactive) | – | 98.6 µM (inactive) | – | 44.8 µM (inactive) | 27.2 µM (inactive) | 21.3 µM (inactive) | 61 µM (inactive) | 44.3 µM (inactive) | 23.5 µM (inactive) | –
CC12C=CC(C)(C3C(=O)C4C(C(=O)C31)C1(C)C=CC4(C)[S+]1[O-])[S+]2[O-] (centres undefined) | > 100 µM (inactive) | 53.1 µM (inactive) | > 100 µM (inactive) | – | 51.2 µM (inactive) | 87.3 µM | 81.5 µM (inactive) | 56 µM (inactive) | 50.6 µM (inactive) | – | > 100 µM (inactive) | > 100 µM (inactive) | > 100 µM (inactive) | – | 38.4 µM (inactive) | > 100 µM (inactive) | > 100 µM (inactive) | – | > 100 µM (inactive)
Cc1cccc2c1c(=O)c1c(O)cc3c(c1n2C)C=CC(C)(C)O3 | > 100 µM (inactive) | > 100 µM (inactive) | > 100 µM (inactive) | > 100 µM (inactive) | > 100 µM (inactive) | > 100 µM | > 100 µM (inactive) | > 100 µM (inactive) | > 100 µM (inactive) | > 100 µM (inactive) | > 100 µM (inactive) | 64.9 µM (inactive) | > 100 µM (inactive) | – | > 100 µM (inactive) | > 100 µM (inactive) | > 100 µM (inactive) | > 100 µM (inactive) | > 100 µM (inactive)
CNc1ccc2c(c1)Cc1ccccc1-2 | 35.2 µM (inactive) | 32.5 µM (inactive) | 22.5 µM (inactive) | 20.3 µM (inactive) | 53 µM (inactive) | 15.3 µM | 50.9 µM (inactive) | 25.4 µM (inactive) | 13.6 µM (inactive) | 26.5 µM (inactive) | 31.9 µM (inactive) | 36.6 µM (inactive) | – | 24.1 µM (inactive) | 21.9 µM (inactive) | 34.1 µM (inactive) | 47.2 µM (inactive) | 38.8 µM (inactive) | 34.8 µM (inactive)
C=C(CCOC)CCC1CCCCC(=C)[C@H]1O (some centres undefined) | > 100 µM (inactive) | > 100 µM (inactive) | > 100 µM (inactive) | > 100 µM (inactive) | > 100 µM (inactive) | > 100 µM | – | > 100 µM (inactive) | > 100 µM (inactive) | > 100 µM (inactive) | > 100 µM (inactive) | > 100 µM (inactive) | > 100 µM (inactive) | > 100 µM (inactive) | > 100 µM (inactive) | > 100 µM (inactive) | > 100 µM (inactive) | > 100 µM (inactive) | –
CCCCN1CCC(O)(c2cc(C(=O)O)[nH]c2-c2cc(C)no2)C1=O (centres undefined) | > 100 µM (inactive) | > 100 µM (inactive) | > 100 µM (inactive) | – | > 100 µM (inactive) | > 100 µM | – | > 100 µM (inactive) | > 100 µM (inactive) | > 100 µM (inactive) | > 100 µM (inactive) | > 100 µM (inactive) | > 100 µM (inactive) | – | > 100 µM (inactive) | > 100 µM (inactive) | > 100 µM (inactive) | > 100 µM (inactive) | 43.5 µM (inactive)
Cc1ccc(NC(=O)C(=O)C2C(=O)C3=C(CC2(C)C)NC2C=CC=CC2S3)c(C)c1 (centres undefined) | > 100 µM (inactive) | > 100 µM (inactive) | > 100 µM (inactive) | > 100 µM (inactive) | 66.4 µM (inactive) | > 100 µM | > 100 µM (inactive) | 37.5 µM (inactive) | > 100 µM (inactive) | > 100 µM (inactive) | > 100 µM (inactive) | > 100 µM (inactive) | > 100 µM (inactive) | – | > 100 µM (inactive) | – | > 100 µM (inactive) | – | > 100 µM (inactive)
CCOC(=O)[C@H](C)OC(=O)[C@@](C)(NC(=O)c1ccccc1C(=O)OC)[C@@H]1NC=C(C(=O)OC)CS1 | > 100 µM (inactive) | 80.4 µM (inactive) | > 100 µM (inactive) | – | > 100 µM (inactive) | > 100 µM | – | > 100 µM (inactive) | > 100 µM (inactive) | > 100 µM (inactive) | > 100 µM (inactive) | > 100 µM (inactive) | 21.9 µM (inactive) | 91.2 µM (inactive) | > 100 µM (inactive) | > 100 µM (inactive) | > 100 µM (inactive) | 38.1 µM (inactive) | 97.9 µM (inactive)

Source: ChEMBL document CHEMBL1201862, “PubChem BioAssay data set” (2004)
